The source of these data is patent US10988524B2, “Modified relaxin B chain peptides and their therapeutic use” (priority 2018, dated 2021).

Non-standard residues stand in square brackets, D forms with d. Residues, ends and D or L forms follow the SMILES beside them. Nle = CCCC[C@H](N)C(=O)O; Aib = CC(C)(N)C(=O)O

Series [1] in a line: Stability in human plasma. The format is in vitro ADME. The settings on record: 37° C.; for Human Plasma stability % remaining, T = 0: 5 μM; for remaining at 1 h, 5 μM / remaining at 4 h, 5 μM: human plasma (sodium or lithium heparin). The procedure: (§1) Prior to the testing of stability in plasma of a peptide batch, its purity (HPLC-UV) was determined.
(§2) Rat and Human plasma: anti-coagulant sodium or lithium heparin.
(§3) 100 μM solution of study compound in 50 mM Phosphate buffer pH 7.4.
(§4) 950 μL plasma is pre-incubated for 5 min at 37° C. 50 μL of compound stock solution is added. Final compound concentration=5 μM. Vortex and transfer 1504, plasma into an Eppendorf for each time point. The time points 0-1 and −4 h are carried out in duplicate for each species.
(§5) After incubation extract 1504, plasma with 6004, Acetonitrile containing with 1% TFA. Vortex and centrifuge 10 min at 14600 rpm. Dry 2004, supernatant under N2. Reconstitute sample in 200 μL of H2O/CH3CN 98/2+0.1% FA+50 ng/ml Labetalol and analyze using the analytical system used in solubility and stability studies.
(§6) For determination of the amount of the remaining peptide, the peak areas of the target compound at t0 and each time point […] were compared, resulting in “% remaining peptide”, following the equation
(§7) % remaining peptide=[(peak area peptide time)×100]/peak area peptide t0. The stability is expressed as “% remaining peptide”.

A further series in a line: Stability in rat plasma. The format is in vitro ADME. The settings on record: 37° C.; for Rat plasma stability % remaining, T = 0: 5 μM; for remaining at 1 h, 5 μM / remaining at 4 h, 5 μM: rat plasma (sodium or lithium heparin). The procedure:
as §1, §2, §3, §4, §5, §6, §7

Another series addresses T1, RXFP1 (Homo sapiens, UniProt Q9HBX9).
T1 sequence (Q9HBX9 1-757): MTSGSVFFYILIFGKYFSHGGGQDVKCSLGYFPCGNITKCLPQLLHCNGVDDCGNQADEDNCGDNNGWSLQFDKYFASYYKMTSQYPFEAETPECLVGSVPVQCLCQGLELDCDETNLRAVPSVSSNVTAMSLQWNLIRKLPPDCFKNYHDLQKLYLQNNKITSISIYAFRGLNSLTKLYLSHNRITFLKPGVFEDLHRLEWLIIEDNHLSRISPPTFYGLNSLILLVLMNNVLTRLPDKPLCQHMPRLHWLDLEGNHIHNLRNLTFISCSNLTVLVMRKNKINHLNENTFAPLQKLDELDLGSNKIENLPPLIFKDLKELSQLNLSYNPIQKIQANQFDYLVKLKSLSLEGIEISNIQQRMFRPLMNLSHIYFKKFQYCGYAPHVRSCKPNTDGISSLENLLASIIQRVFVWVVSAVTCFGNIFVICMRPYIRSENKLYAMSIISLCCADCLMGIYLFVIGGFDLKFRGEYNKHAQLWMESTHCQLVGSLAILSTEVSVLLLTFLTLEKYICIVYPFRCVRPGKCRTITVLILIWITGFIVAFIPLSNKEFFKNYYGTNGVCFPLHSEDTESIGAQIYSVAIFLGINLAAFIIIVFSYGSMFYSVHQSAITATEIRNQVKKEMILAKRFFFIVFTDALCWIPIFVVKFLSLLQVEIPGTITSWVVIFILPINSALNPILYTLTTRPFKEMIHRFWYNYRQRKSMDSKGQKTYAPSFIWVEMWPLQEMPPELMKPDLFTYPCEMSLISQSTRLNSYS
Briefly: OVCAR5 cAMP assay (RXFP1 agonist activity, HTRF). The note with it: for Emax: OVCAR-5, read-out: cAMP assay in OVCAR 5 cells Emax, maximal intracellular cAMP relative to H2-relaxin in the same test occasion; for EC50: cAMP assay in OVCAR 5 cells EC50 (nM), OVCAR5 cells expressing endogenous RXFP1, cAMP by HTRF, 30 min at 37° C., 1 mM IBMX. On the technique in general: Cyclic AMP is a second messenger, typically raised through Gs and lowered through Gi signalling.

Series [2] in a line: Solubility testing of peptides in buffer. The format is physicochemical. The note with it: Phosphate buffer 50 mM pH 7.4; target solubility 2.0 mg/ml; ~19 h; read-out: Solubility phosphate buffer pH 7.4.

`CC[C@H](C)[C@H](NC(=O)[C@H](CCC(N)=O)NC(=O)[C@H](C)NC(=O)[C@H](CCCNC(=N)N)NC(=O)[C@@H](NC(=O)[C@H](CCCCN)NC(=O)[C@H](CCC(=O)O)NC(=O)[C@H](CCCNC(=N)N)NC(=O)CNC(=O)[C@H](CCC(=O)O)NC(=O)[C@H](CC(C)C)NC(C)=O)C(C)C)C(=O)NC(C)(C)C(=O)N[C@H](C(=O)N[C@@H](CCC(=O)O)C(=O)NCC(=O)N[C@@H](CCSC)C(=O)N[C@@H](CO)C(=O)N[C@@H](CCCCN)C(=O)N[C@@H](Cc1c[nH]c2ccccc12)C(=O)N[C@@H](CO)C(=O)N[C@@H](CCCCN)C(=O)N[C@@H](CCCNC(=N)N)C(=O)N[C@@H](CCCCN)C(=O)N[C@@H](CCCCN)C(N)=O)[C@@H](C)CC` [compound 1] (Ac-LEGREKVRAQI[Aib]IEGMSKWSKRKK-NH2): in series [1], the “Human Plasma stability % remaining, T = 0” value came to 100%; the amount remaining at 1 h, 5 μM worked out at 71%; the amount remaining at 4 h, 5 μM was 55%. Further, in “Stability in rat plasma”, the “Rat plasma stability % remaining, T = 0” value was 100%; the share remaining at 1 h, 5 μM was 72%; the fraction remaining at 4 h, 5 μM stood at 17%. Besides, on RXFP1, the Emax stood at 91%.

`CC[C@H](C)[C@H](NC(=O)[C@H](CCC(N)=O)NC(=O)[C@H](C)NC(=O)[C@H](CCCNC(=N)N)NC(=O)[C@@H](NC(=O)[C@H](CCCCN)NC(=O)[C@H](CCC(=O)O)NC(=O)[C@H](CCCNC(=N)N)NC(=O)CNC(=O)[C@H](CCC(=O)O)NC(=O)[C@H](CC(C)C)NC(C)=O)C(C)C)C(=O)NC(C)(C)C(=O)NC(C)(C)C(=O)N[C@@H](CCC(=O)O)C(=O)NCC(=O)N[C@@H](CCSC)C(=O)N[C@@H](CO)C(=O)N[C@@H](CCCCN)C(=O)N[C@@H](Cc1c[nH]c2ccccc12)C(=O)N[C@@H](CO)C(=O)N[C@@H](CCCCN)C(=O)N[C@@H](CCCNC(=N)N)C(=O)N[C@@H](CCCCN)C(=O)N[C@@H](CCCCN)C(N)=O` [compound 2] (Ac-LEGREKVRAQI[Aib][Aib]EGMSKWSKRKK-NH2): in series [1], the “Human Plasma stability % remaining, T = 0” value came to 100%; the amount remaining at 1 h, 5 μM was 80%; the fraction remaining at 4 h, 5 μM was found to be 79%. In the series “Stability in rat plasma”, the “Rat plasma stability % remaining, T = 0” value worked out at 100%; the fraction remaining at 1 h, 5 μM was determined as 57%; the share remaining at 4 h, 5 μM was found to be 24%. At RXFP1, the Emax worked out at 99%.

As for `CCCC[C@H](NC(=O)CNC(=O)[C@H](CCC(=O)O)NC(=O)C(C)(C)NC(=O)C(C)(C)NC(=O)[C@@H](NC(=O)[C@H](CCC(N)=O)NC(=O)[C@H](CCCNC(=N)N)NC(=O)[C@H](CCCNC(=N)N)NC(=O)[C@@H](NC(=O)[C@H](CCCCN)NC(=O)[C@H](CCC(=O)O)NC(=O)[C@H](CCCNC(=N)N)NC(=O)CNC(=O)[C@H](CCC(=O)O)NC(=O)[C@H](CC(C)C)NC(C)=O)C(C)C)[C@@H](C)CC)C(=O)N[C@@H](CO)C(=O)N[C@H](C(=O)N[C@@H](Cc1c[nH]c2ccccc12)C(=O)N[C@@H](CO)C(=O)NC(C)(C)C(=O)N[C@@H](CCCNC(=N)N)C(=O)N[C@@H](CCCCN)C(=O)N[C@@H](CCCCN)C(N)=O)[C@@H](C)O` [compound 49] (Ac-LEGREKVRRQI[Aib][Aib]EG[Nle]STWS[Aib]RKK-NH2), the solubility in series [2] is no less than 2500 µg/mL. Moreover, at RXFP1, the Emax worked out at 95%.

Turning to `CCCC[C@H](NC(=O)CNC(=O)[C@H](CCC(=O)O)NC(=O)C(C)(C)NC(=O)C(C)(C)NC(=O)[C@@H](NC(=O)[C@H](CCC(N)=O)NC(=O)[C@H](C)NC(=O)[C@H](CCCNC(=N)N)NC(=O)[C@@H](NC(=O)[C@H](CCCCN)NC(=O)[C@H](CCC(=O)O)NC(=O)[C@H](CCCNC(=N)N)NC(=O)CNC(=O)[C@H](CCC(=O)O)NC(=O)[C@H](CC(C)C)NC(C)=O)C(C)C)[C@@H](C)CC)C(=O)N[C@@H](CO)C(=O)N[C@H](C(=O)N[C@@H](Cc1c[nH]c2ccccc12)C(=O)N[C@@H](CO)C(=O)NC(C)(C)C(=O)N[C@@H](CCCNC(=N)N)C(=O)N[C@@H](CCCNC(=N)N)C(=O)N[C@@H](CCCNC(=N)N)C(N)=O)[C@@H](C)O` [compound 50] (Ac-LEGREKVRAQI[Aib][Aib]EG[Nle]STWS[Aib]RRR-NH2), in series [2], the solubility is no less than 2300 µg/mL. Besides, on RXFP1, the Emax is 90% and the EC50 was no more than 5 nM.

As to `CCCC[C@H](NC(=O)CNC(=O)[C@H](CCC(=O)O)NC(=O)C(C)(C)NC(=O)C(C)(C)NC(=O)[C@@H](NC(=O)[C@H](CCC(N)=O)NC(=O)[C@H](C)NC(=O)[C@H](CCCNC(=N)N)NC(=O)[C@@H](NC(=O)[C@H](CCCCN)NC(=O)[C@H](CCC(=O)O)NC(=O)[C@H](CCCNC(=N)N)NC(=O)CNC(=O)[C@H](CCC(=O)O)NC(=O)[C@H](CC(C)C)NC(C)=O)C(C)C)[C@@H](C)CC)C(=O)N[C@@H](CO)C(=O)N[C@H](C(=O)N[C@@H](Cc1ccccc1)C(=O)N[C@@H](CO)C(=O)NC(C)(C)C(=O)N[C@@H](CCCNC(=N)N)C(=O)N[C@@H](CCCCN)C(=O)N[C@@H](CCCCN)C(N)=O)[C@@H](C)O` [compound 51] (Ac-LEGREKVRAQI[Aib][Aib]EG[Nle]STFS[Aib]RKK-NH2), the solubility in series [2] is no less than 2400 µg/mL. In addition, the Emax at RXFP1 stood at 98%.

For `CCCC[C@H](NC(=O)CNC(=O)[C@H](CCC(=O)O)NC(=O)C(C)(C)NC(=O)C(C)(C)NC(=O)[C@@H](NC(=O)[C@H](CCC(N)=O)NC(=O)[C@H](C)NC(=O)[C@H](CCCNC(=N)N)NC(=O)[C@@H](NC(=O)[C@H](CCCCN)NC(=O)[C@H](CCC(=O)O)NC(=O)[C@H](CCCNC(=N)N)NC(=O)CNC(=O)[C@H](CCC(=O)O)NC(=O)[C@H](CC(C)C)NC(C)=O)C(C)C)[C@@H](C)CC)C(=O)N[C@@H](CO)C(=O)N[C@@H](CCC(N)=O)C(=O)N[C@@H](Cc1c[nH]c2ccccc12)C(=O)N[C@@H](CO)C(=O)NC(C)(C)C(=O)N[C@@H](CCCNC(=N)N)C(=O)N[C@@H](CCCNC(=N)N)C(=O)N[C@@H](CCCNC(=N)N)C(N)=O` [compound 52] (Ac-LEGREKVRAQI[Aib][Aib]EG[Nle]SQWS[Aib]RRR-NH2), the solubility in series [2] was no less than 2300 µg/mL. At RXFP1, the Emax is 94% and the 50% effective concentration (EC50) was no more than 10 nM.

Take `CCCC[C@H](NC(=O)CNC(=O)[C@H](CCC(=O)O)NC(=O)C(C)(C)NC(=O)C(C)(C)NC(=O)[C@@H](NC(=O)[C@H](CCC(N)=O)NC(=O)[C@H](C)NC(=O)[C@H](CCCNC(=N)N)NC(=O)[C@@H](NC(=O)[C@H](CCCCN)NC(=O)[C@H](CCC(=O)O)NC(=O)[C@H](CCCNC(=N)N)NC(=O)CNC(=O)[C@H](CCC(=O)O)NC(=O)[C@H](CC(C)C)NC(C)=O)C(C)C)[C@@H](C)CC)C(=O)N[C@@H](CO)C(=O)N[C@H](C(=O)N[C@@H](Cc1ccc(O)cc1)C(=O)N[C@@H](CO)C(=O)NC(C)(C)C(=O)N[C@@H](CCCNC(=N)N)C(=O)N[C@@H](CCCCN)C(=O)N[C@@H](CCCCN)C(N)=O)[C@@H](C)O` [compound 53] (Ac-LEGREKVRAQI[Aib][Aib]EG[Nle]STYS[Aib]RKK-NH2): in series [2], the solubility is no less than 2100 µg/mL. Further, the Emax on RXFP1 worked out at 75%.

Regarding `CC[C@H](C)[C@H](NC(=O)[C@H](CCC(N)=O)NC(=O)[C@H](C)NC(=O)[C@H](CCCNC(=N)N)NC(=O)[C@@H](NC(=O)[C@H](CCCCN)NC(=O)[C@H](CCC(=O)O)NC(=O)[C@H](CCCNC(=N)N)NC(=O)CNC(=O)[C@H](CCC(=O)O)NC(=O)[C@H](CC(C)C)NC(C)=O)C(C)C)C(=O)NC(C)(C)C(=O)NC(C)(C)C(=O)N[C@@H](CCC(=O)O)C(=O)NCC(=O)N[C@@H](CCC(N)=O)C(=O)N[C@@H](CO)C(=O)N[C@H](C(=O)N[C@@H](Cc1c[nH]c2ccccc12)C(=O)N[C@@H](CO)C(=O)NC(C)(C)C(=O)N[C@@H](CCCNC(=N)N)C(=O)N[C@@H](CCCCN)C(=O)N[C@@H](CCCCN)C(N)=O)[C@@H](C)O` [compound 54] (Ac-LEGREKVRAQI[Aib][Aib]EGQSTWS[Aib]RKK-NH2), the solubility in series [2] was no less than 2400 µg/mL. For the same compound, the “cAMP assay in OVCAR 5 cells Emax” value at RXFP1 (maximal intracellular cAMP relative to H2-relaxin in the same test occasion) came to 96%.

Broadly, the share remaining is the share of the starting amount still present when the sample was taken. A low value points to more turnover. The Emax is the size of the effect at its maximum, as opposed to the concentration needed. Broadly, the solubility is the dissolved amount per volume that the medium holds. What is called EC50 is the concentration that produces a half-maximal response. Higher therefore signals a less potent agent.
